Drawing on patent US20110152313A1 (MACQUARIE UNIVERSITY, priority 2008, published 2011), this text covers Kd for two compounds.

Holding throughout (assay): kinase binding constant, 11-point dose response (T7 phage, qPCR)
Common to all, as to conditions: >30 = no inhibition at highest concentration tested

Experiment [1] has as its target CDK7 (Homo sapiens, UniProt P50613).
Experiment [2] has as its target T1, YSK4 (Homo sapiens, UniProt Q56UN5).
T1 sequence (Q56UN5 1-1328): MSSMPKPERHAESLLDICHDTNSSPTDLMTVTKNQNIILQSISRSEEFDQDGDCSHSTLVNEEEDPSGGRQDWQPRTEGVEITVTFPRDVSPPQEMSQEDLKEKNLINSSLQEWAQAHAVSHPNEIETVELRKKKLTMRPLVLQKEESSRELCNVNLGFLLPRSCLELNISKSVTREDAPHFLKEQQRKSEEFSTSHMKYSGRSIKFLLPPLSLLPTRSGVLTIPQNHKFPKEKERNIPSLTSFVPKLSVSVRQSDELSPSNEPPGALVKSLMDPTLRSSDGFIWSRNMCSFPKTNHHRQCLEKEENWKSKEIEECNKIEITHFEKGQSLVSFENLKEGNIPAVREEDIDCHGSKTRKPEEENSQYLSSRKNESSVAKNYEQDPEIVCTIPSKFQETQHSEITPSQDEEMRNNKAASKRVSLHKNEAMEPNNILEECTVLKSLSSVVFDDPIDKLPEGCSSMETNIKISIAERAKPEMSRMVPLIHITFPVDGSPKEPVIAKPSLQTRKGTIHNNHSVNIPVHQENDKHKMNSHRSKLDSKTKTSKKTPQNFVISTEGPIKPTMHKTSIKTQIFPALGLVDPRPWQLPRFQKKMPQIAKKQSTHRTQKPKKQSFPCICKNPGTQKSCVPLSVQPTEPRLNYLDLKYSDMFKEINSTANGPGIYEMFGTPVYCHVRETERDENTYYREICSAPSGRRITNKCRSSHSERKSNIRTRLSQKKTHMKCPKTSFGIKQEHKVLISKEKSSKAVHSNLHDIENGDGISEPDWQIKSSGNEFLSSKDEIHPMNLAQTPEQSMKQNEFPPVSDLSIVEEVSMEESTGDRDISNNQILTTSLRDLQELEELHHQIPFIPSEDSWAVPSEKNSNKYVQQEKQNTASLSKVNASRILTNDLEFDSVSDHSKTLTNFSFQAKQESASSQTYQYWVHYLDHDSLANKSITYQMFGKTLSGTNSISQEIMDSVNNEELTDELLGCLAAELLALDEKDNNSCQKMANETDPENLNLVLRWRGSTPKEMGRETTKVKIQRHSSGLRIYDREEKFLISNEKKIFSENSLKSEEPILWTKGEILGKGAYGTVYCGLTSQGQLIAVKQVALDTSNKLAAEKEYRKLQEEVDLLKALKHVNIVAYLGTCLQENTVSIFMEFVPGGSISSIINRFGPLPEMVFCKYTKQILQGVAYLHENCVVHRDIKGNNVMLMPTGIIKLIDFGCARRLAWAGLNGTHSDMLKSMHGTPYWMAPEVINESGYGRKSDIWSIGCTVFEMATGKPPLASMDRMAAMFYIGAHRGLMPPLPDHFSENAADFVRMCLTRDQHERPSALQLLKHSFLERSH

Experiment [3] concerns the target CLK2 (Homo sapiens, UniProt P49760).
Experiment [4] deals with BMPR1B (Homo sapiens, UniProt O00238).
Experiment [5] concerns the target T2, TYK2 (Homo sapiens, UniProt P29597).
T2 construct: TYK2(JH2domain-pseudokinase)

Experiment [6] deals with PIK4CB (Homo sapiens, UniProt Q9UBF8).
Sequence of PIK4CB (Q9UBF8 whole entry, species assumed): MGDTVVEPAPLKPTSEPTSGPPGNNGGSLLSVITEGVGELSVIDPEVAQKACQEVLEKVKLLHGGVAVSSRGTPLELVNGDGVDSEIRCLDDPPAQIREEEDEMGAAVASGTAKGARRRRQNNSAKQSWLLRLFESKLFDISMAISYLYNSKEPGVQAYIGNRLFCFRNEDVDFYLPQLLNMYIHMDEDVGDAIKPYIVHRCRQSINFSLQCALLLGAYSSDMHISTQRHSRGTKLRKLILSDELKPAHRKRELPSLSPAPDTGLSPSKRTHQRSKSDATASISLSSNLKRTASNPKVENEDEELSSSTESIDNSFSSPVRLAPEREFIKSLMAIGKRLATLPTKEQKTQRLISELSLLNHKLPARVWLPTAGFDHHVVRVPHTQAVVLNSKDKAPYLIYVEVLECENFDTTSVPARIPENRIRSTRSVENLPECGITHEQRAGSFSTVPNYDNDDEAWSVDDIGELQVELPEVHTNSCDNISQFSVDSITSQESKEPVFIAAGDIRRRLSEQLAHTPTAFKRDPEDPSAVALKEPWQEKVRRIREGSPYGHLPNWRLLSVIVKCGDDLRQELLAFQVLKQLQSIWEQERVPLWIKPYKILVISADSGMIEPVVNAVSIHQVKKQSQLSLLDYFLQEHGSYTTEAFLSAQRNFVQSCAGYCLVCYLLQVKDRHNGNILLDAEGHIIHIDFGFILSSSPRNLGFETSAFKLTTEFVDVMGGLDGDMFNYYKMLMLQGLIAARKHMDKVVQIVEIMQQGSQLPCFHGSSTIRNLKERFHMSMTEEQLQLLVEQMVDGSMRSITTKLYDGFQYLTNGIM

Sequence of CDK7 (P50613 whole entry): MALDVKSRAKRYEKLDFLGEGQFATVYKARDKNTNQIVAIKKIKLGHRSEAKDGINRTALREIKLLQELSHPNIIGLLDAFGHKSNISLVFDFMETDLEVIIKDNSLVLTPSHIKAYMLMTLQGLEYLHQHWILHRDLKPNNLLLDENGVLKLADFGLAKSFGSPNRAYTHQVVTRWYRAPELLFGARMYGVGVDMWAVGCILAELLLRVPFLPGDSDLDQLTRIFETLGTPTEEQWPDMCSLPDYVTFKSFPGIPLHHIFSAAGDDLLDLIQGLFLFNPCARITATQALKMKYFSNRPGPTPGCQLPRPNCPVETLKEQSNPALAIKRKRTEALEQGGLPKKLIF
T2 sequence (P29597 whole entry): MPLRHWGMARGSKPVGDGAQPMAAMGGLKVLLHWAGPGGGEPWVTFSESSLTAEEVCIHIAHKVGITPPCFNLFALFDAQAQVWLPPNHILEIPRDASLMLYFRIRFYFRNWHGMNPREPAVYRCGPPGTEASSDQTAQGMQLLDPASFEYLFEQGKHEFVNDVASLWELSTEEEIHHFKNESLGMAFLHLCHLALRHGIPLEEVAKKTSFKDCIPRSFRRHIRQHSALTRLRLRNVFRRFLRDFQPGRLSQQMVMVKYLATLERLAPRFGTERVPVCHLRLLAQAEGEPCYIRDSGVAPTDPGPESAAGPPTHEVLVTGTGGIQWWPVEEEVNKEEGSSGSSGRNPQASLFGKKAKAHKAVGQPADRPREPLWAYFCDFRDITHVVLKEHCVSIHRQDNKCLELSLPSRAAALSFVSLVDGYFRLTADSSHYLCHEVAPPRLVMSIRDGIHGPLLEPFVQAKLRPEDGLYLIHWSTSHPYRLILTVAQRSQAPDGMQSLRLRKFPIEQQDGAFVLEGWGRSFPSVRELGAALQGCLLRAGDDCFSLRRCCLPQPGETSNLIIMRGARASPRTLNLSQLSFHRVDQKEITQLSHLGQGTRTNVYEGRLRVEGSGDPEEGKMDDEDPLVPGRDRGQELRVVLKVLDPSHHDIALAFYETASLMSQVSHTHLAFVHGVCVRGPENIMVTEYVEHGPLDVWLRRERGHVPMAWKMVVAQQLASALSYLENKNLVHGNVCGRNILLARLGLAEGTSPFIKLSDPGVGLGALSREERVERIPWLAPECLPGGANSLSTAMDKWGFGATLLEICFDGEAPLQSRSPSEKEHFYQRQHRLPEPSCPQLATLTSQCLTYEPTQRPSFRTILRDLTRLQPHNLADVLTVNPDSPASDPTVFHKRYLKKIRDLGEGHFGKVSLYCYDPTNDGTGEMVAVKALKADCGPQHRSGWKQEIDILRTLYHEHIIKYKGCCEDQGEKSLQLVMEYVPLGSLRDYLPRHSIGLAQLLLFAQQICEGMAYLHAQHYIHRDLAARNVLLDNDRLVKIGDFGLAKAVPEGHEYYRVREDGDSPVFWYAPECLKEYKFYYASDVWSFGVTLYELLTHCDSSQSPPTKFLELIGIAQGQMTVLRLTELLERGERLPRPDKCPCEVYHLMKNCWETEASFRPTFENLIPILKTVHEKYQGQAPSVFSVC
Sequence of CLK2 (P49760 whole entry): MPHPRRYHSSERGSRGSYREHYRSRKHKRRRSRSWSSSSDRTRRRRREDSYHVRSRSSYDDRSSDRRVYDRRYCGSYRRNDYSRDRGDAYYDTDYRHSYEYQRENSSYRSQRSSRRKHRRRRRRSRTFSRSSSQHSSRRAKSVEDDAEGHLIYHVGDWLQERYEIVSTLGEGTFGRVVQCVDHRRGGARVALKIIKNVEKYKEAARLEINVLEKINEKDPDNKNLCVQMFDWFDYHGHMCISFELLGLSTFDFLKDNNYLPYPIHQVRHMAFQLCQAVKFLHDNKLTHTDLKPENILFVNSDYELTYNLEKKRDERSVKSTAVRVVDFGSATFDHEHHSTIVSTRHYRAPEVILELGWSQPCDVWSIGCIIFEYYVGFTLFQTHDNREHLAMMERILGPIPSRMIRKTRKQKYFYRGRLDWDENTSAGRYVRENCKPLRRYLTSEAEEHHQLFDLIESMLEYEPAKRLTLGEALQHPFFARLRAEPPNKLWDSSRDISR
Sequence of BMPR1B (O00238 14-502): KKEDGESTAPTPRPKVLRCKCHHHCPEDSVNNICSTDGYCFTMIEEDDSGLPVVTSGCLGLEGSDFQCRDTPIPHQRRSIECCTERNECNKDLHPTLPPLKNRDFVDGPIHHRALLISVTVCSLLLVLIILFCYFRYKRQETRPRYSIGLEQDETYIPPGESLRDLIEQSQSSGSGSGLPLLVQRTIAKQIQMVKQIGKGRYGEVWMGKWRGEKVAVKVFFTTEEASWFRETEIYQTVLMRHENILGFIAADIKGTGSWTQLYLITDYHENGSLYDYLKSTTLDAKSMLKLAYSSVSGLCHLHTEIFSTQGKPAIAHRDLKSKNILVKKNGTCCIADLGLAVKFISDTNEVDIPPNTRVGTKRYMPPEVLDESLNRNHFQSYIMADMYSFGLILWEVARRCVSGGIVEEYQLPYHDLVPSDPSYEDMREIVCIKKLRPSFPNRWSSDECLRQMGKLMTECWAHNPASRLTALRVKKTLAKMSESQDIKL

As to `Nc1nc2c(-c3ccccn3)nccc2[nH]1` [drawing 35, 4-(pyrid-2-yl)-1H-imidazo[4,5-c]pyridin-2-amine], the Kd in experiment [1] is 7500 nM; in experiment [2], 220 nM.

As to `Nc1nc2c(-c3cnc4ccccc4c3)nccc2[nH]1` [drawing 36, 4-(quinolin-3-yl)-1H-imidazo[4,5-c]pyridin-2-amine], the Kd in experiment [3] turned out to be 1200 nM; in experiment [4], 7200 nM; in experiment [5], 290 nM; in experiment [6], 350 nM.
